This passage reports IC90 and Papp A→B results from ChEMBL document CHEMBL1821574, “Structure-activity relationships of 4-position diamine quinoline methanols as intermittent preventative treatment (IPT) against Plasmodium falciparum” (J Med Chem, 2011).

Data set [1] deals with Plasmodium falciparum. The data set is described as follows: Antimalarial activity against chloroquine, mefloquine and pyrimethamine-resistant Plasmodium falciparum TM91C235 by SYBR Green I-based fluorescence assay. The class given is functional.
Data set [2] deals with Plasmodium falciparum. Description: Antimalarial activity against chloroquine-resistant and mefloquine-sensitive Plasmodium falciparum W2 assessed as inhibition of [3H]hypoxanthine incorporation by liquid scintillation spectrometry. It counts as functional.
The test system of data set [3] is Plasmodium falciparum. Description: Antimalarial activity against chloroquine, mefloquine and pyrimethamine-resistant Plasmodium falciparum TM91C235 assessed as inhibition of [3H]hypoxanthine incorporation by liquid scintillation spectrometry. The class given is functional.
Data set [4] relates to Plasmodium falciparum. Description: Antimalarial activity against chloroquine, mefloquine and pyrimethamine-resistant Plasmodium falciparum TM90C2A assessed as inhibition of [3H]hypoxanthine incorporation by liquid scintillation spectrometry. The class given is functional.
The subject of data set [5] is Plasmodium falciparum. Description: Antimalarial activity against chloroquine-sensitive and mefloquine-resistant Plasmodium falciparum D6 assessed as inhibition of [3H]hypoxanthine incorporation by liquid scintillation spectrometry. It counts as functional.
Data set [6] has as its system Plasmodium falciparum. The data set is described as follows: Antimalarial activity against chloroquine-sensitive and mefloquine-resistant Plasmodium falciparum D6 by SYBR Green I-based fluorescence assay. It counts as functional.
Data set [7] is described as follows: Apparent permeability from apical to basolateral side of dog MDCK cells at 5 uM after 2 hrs by LC/MS/MS analysis. It counts as ADME, cell-based, Canis lupus familiaris.

Molecules are shown by their SMILES. ≈ marks a conversion by molar mass, not a printed value.

`OC(CNCCNCc1ccncc1)c1cc(C(F)(F)F)nc2c(C(F)(F)F)cccc12` (centres undefined): the IC90 in data set [1] was greater than 0.5 µg/mL; in data set [2] it was 0.47 µg/mL (≈ 1.03 µM); in data set [3], greater than 0.5 µg/mL; in data set [4], greater than 0.5 µg/mL; in data set [5], 0.38 µg/mL (≈ 0.829 µM); in data set [6], 0.38 µg/mL (≈ 0.829 µM).

Consider `OC(CNCCN1CCCC1)c1cc(C(F)(F)F)nc2c(C(F)(F)F)cccc12` (centres undefined), for which the concentration for an effect of 90% (IC90) in data set [2] was 0.109 µg/mL (≈ 0.259 µM); in data set [3], 0.556 µg/mL (≈ 1.32 µM); in data set [4], 0.835 µg/mL (≈ 1.98 µM); in data set [5], 0.311 µg/mL (≈ 0.738 µM).

With `CC1CCN(CC(C)(C)NCC(O)c2cc(C(F)(F)F)nc3c(C(F)(F)F)cccc23)CC1` (centres undefined), the IC90 in data set [1] stood at 0.034 µg/mL (≈ 0.0712 µM); in data set [2], 0.007 µg/mL (≈ 0.0147 µM); in data set [3] it was 0.061 µg/mL (≈ 0.128 µM); in data set [4], 0.066 µg/mL (≈ 0.138 µM); in data set [5] it was 0.024 µg/mL (≈ 0.0503 µM); in data set [6], 0.017 µg/mL (≈ 0.0356 µM). Further, in data set [7], the Papp A→B at 2 h, 5 µM was 44.2 ×10⁻⁶ cm/s.

Regarding `CC(CCN1CCOCC1)NCC(O)c1cc(C(F)(F)F)nc2c(C(F)(F)F)cccc12` (centres undefined), the IC90 in data set [2] came out at 0.011 µg/mL (≈ 0.0236 µM); in data set [3], 0.055 µg/mL (≈ 0.118 µM); in data set [4], 0.095 µg/mL (≈ 0.204 µM); in data set [5] it was 0.036 µg/mL (≈ 0.0773 µM).

Turning to `OC(CNCC1CCNC1)c1cc(C(F)(F)F)nc2c(C(F)(F)F)cccc12` (centres undefined), the IC90 in data set [2] amounted to 2.04 µg/mL (≈ 5.01 µM); in data set [3] it was 4.27 µg/mL (≈ 10.5 µM); in data set [4], 4.37 µg/mL (≈ 10.7 µM); in data set [5], 3.1 µg/mL (≈ 7.61 µM).

`OC(CNC[C@]12CCC[C@H]1CNC2)c1cc(C(F)(F)F)nc2c(C(F)(F)F)cccc12` (some centres undefined): the IC90 in data set [2] is 0.852 µg/mL (≈ 1.9 µM); in data set [3] it was 0.419 µg/mL (≈ 0.936 µM); in data set [4], 0.429 µg/mL (≈ 0.959 µM); in data set [5] it was 0.159 µg/mL (≈ 0.355 µM).

As to `OC(CNC[C@@]12CCC[C@@H]1CNC2)c1cc(C(F)(F)F)nc2c(C(F)(F)F)cccc12` (some centres undefined), the IC90 in data set [2] was found to be 0.885 µg/mL (≈ 1.98 µM); in data set [3], 0.433 µg/mL (≈ 0.968 µM); in data set [4], 0.358 µg/mL (≈ 0.8 µM); in data set [5], 0.165 µg/mL (≈ 0.369 µM).

Take `CN1CCCC(C(NCC(O)c2cc(C(F)(F)F)nc3c(C(F)(F)F)cccc23)C2CCCN(C)C2)C1` (centres undefined): the IC90 in data set [2] stood at 0.28 µg/mL (≈ 0.526 µM); in data set [3] it was 0.903 µg/mL (≈ 1.7 µM); in data set [4] it was 0.983 µg/mL (≈ 1.85 µM); in data set [5], 0.746 µg/mL (≈ 1.4 µM).

`Cc1ccc(S(=O)(=O)N(CCN2CCCCC2)CC(O)c2cc(C(F)(F)F)nc3c(C(F)(F)F)cccc23)cc1` (centres undefined): the figures for the IC90 in data set [1] and in data set [6] were 0.214 µg/mL (≈ 0.363 µM) and 0.071 µg/mL (≈ 0.12 µM), respectively. Besides, the apical-to-basolateral permeability (Papp A→B) at 2 h, 5 µM in data set [7] was 2.5 ×10⁻⁶ cm/s.

Turning to `OC(CNCCN1CC2CCC1C2)c1cc(C(F)(F)F)nc2c(C(F)(F)F)cccc12` (centres undefined), the IC90 is 0.972 µg/mL (≈ 2.17 µM) in data set [1] and 0.844 µg/mL (≈ 1.89 µM) in data set [6]. In data set [7], the Papp A→B at 2 h, 5 µM worked out at 14.2 ×10⁻⁶ cm/s.

`CC(CN1CC2CCC1C2)NCC(O)c1cc(C(F)(F)F)nc2c(C(F)(F)F)cccc12` (centres undefined): the IC90 came out at 0.051 µg/mL (≈ 0.111 µM) in data set [1] and 0.029 µg/mL (≈ 0.0628 µM) in data set [6]. The Papp A→B at 2 h, 5 µM in data set [7] came to 18.8 ×10⁻⁶ cm/s.

In the case of `CC(C)(CN1CC2CCC1C2)NCC(O)c1cc(C(F)(F)F)nc2c(C(F)(F)F)cccc12` (centres undefined), the figures for the IC90 in data set [1] and in data set [6] were 0.16 µg/mL (≈ 0.337 µM) and 0.093 µg/mL (≈ 0.196 µM), respectively. The apical-to-basolateral permeability (Papp A→B) at 2 h, 5 µM in data set [7] amounted to 25.1 ×10⁻⁶ cm/s.

Consider `CN(CCN(C)CC(O)c1cc(C(F)(F)F)nc2c(C(F)(F)F)cccc12)CC(O)c1cc(C(F)(F)F)nc2c(C(F)(F)F)cccc12` (centres undefined), for which the concentration for an effect of 90% (IC90) in data set [1] worked out at 0.375 µg/mL (≈ 0.534 µM); in data set [6], 0.329 µg/mL (≈ 0.468 µM).

Consider `CNCCN(CC(O)c1cc(C(F)(F)F)nc2c(C(F)(F)F)cccc12)CC(O)c1cc(C(F)(F)F)nc2c(C(F)(F)F)cccc12` (centres undefined), for which the results for the IC90 in data set [1] and in data set [6] were 0.03 µg/mL (≈ 0.0436 µM) and 0.022 µg/mL (≈ 0.032 µM), respectively. Besides, the Papp A→B at 2 h, 5 µM in data set [7] worked out at 0.3 ×10⁻⁶ cm/s.

With `CN(C)CCN(CC(O)c1cc(C(F)(F)F)nc2c(C(F)(F)F)cccc12)CC(O)c1cc(C(F)(F)F)nc2c(C(F)(F)F)cccc12` (centres undefined), the 90% effect concentration (IC90) in data set [1] and in data set [6] was greater than 0.5 µg/mL in each case.

Take `CN(CCN)CC(O)c1cc(C(F)(F)F)nc2c(C(F)(F)F)cccc12` (centres undefined): the 90% effect concentration (IC90) in data set [1] was determined as 0.695 µg/mL (≈ 1.82 µM); in data set [6], 0.344 µg/mL (≈ 0.902 µM). For the same compound, in data set [7], the Papp A→B at 2 h, 5 µM was determined as 4.9 ×10⁻⁶ cm/s.

Turning to `CNCCN(C)CC(O)c1cc(C(F)(F)F)nc2c(C(F)(F)F)cccc12` (centres undefined), the IC90 in data set [1] was 0.755 µg/mL (≈ 1.91 µM); in data set [6], 0.432 µg/mL (≈ 1.09 µM). Moreover, the Papp A→B at 2 h, 5 µM in data set [7] stood at 5.66 ×10⁻⁶ cm/s.

Take `NCCN(Cc1ccccc1)CC(O)c1cc(C(F)(F)F)nc2c(C(F)(F)F)cccc12` (centres undefined): the IC90 came to 0.289 µg/mL (≈ 0.632 µM) in data set [1] and 0.329 µg/mL (≈ 0.719 µM) in data set [6]. In addition, in data set [7], the apparent permeability from apical to basolateral (Papp A→B) at 2 h, 5 µM turned out to be 9.06 ×10⁻⁶ cm/s.

Take `CC(C)N(CCN)CC(O)c1cc(C(F)(F)F)nc2c(C(F)(F)F)cccc12` (centres undefined): the concentration for an effect of 90% (IC90) is 0.627 µg/mL (≈ 1.53 µM) in data set [1] and 0.439 µg/mL (≈ 1.07 µM) in data set [6].

For `CN(C)CC(C)(C)NCC(O)c1cc(C(F)(F)F)nc2c(C(F)(F)F)cccc12` (centres undefined), the IC90 in data set [2] is 0.03 µg/mL (≈ 0.0709 µM); in data set [3], 0.142 µg/mL (≈ 0.335 µM); in data set [4], 0.165 µg/mL (≈ 0.39 µM); in data set [5] it was 0.098 µg/mL (≈ 0.231 µM).

Take `CC(CNC(C)(C)C)NCC(O)c1cc(C(F)(F)F)nc2c(C(F)(F)F)cccc12` (centres undefined): the IC90 is 0.041 µg/mL (≈ 0.0937 µM) in data set [1] and 0.015 µg/mL (≈ 0.0343 µM) in data set [6]. For the same compound, the Papp A→B at 2 h, 5 µM in data set [7] stood at 13.1 ×10⁻⁶ cm/s.
